Reference: patent publication US9717752B2, “Uses of antagonists of hyaluronan signaling” (The United States of America, as represented by the …, priority 2012, dated 2017)
“Also recorded” adds a separate entry of the source.

Key:
mice exposed to sHA = assay: In vivo model of airway contraction (AHR) after sHA instillation, airway resistance to methacholine; conditions: 50 μl of 1-2 mg/ml by oropharyngeal aspiration, methacholine challenge 2 hours after sHA, compared to sHA with saline
Description: (§1) Measurements of respiratory mechanics were made by the forced oscillation technique. Response to aerosolized methacholine (0, 10 mg/ml, 25 mg/ml, and 100 mg/ml) was determined by resistance measurements every 30 seconds for 5 minutes, ensuring the parameters calculated had peaked. The resistance measurements were then averaged at each dose and graphed (RT, measured in cm H2O/ml/s) along with the initial baseline measurement.
(§2) In the following studies to evaluate the effect of heparosan, mice were exposed to one of several agents: sHA (50 μl of a 1 mg/ml sHA solution in PBS—sonicated Healon, AMO Inc., Santa Ana, Calif.); 1 ppm ozone (O3) for 4 hours; or inhaled OVA (sensitization with i.p. injection of 10 μg OVA (Sigma, St. Louis, Mo.), adsorbed to 2 mg of alum adjuvant (Pierce Biotechnology, Inc., Rockford, Ill.) diluted in saline on days 0 and 7, 60 minutes inhaled exposure to 1% OVA aerosol on days 14 and 15). Mice were phenotyped for AHR at typical time points for each of these exposures: 2 hours after sHA instillation; 24 hours after ozone exposure; and 48 hours after second OVA exposure. Thirty minutes prior to phenotyping, mice received appropriate treatment (saline, heparosan or heparin) by oropharyngeal aspiration. Mice received 50 μl of a 1-2 mg/ml solution of heparosan or heparin (or 50 μl of saline as a control). […]

[1] = system: mice sensitized to ovalbumin and exposed to inhaled ovalbumin; assay: Murine model of airway contraction in allergic asthma (ovalbumin), airway resistance; type: in vivo; conditions: given 48 hours after OVA exposure, 50 μl of 1-2 mg/ml by oropharyngeal aspiration, compared to saline placebo
Description: as §1, §2

mice exposed to ozone = assay: Murine model of airway contraction after ozone exposure, airway resistance; type: in vivo; conditions: 1 ppm ozone for 4 hours, given 24 hours after exposure, 50 μl of 1-2 mg/ml by oropharyngeal aspiration, compared to saline placebo
Description: as §1, §2

[2] = system: human airway smooth muscle cells (ASMC); assay: Gel contraction: human airway smooth muscle cells in 3-dimensional collagen-hyaluronan gels; type: cell-based
Description: The in vitro effect of heparosan on human airway smooth muscle cells (ASMC) was tested in 3-dimensional, collagen-hyaluronan gels. Collagen-only gels were used as controls. Human ASMC (6×10^5 cells/ml) in basal media were seeded into the gel solution and incubated up to 36 hours at 37° C. in 5% CO2. Gels were scanned at varying time intervals to monitor gel contraction. After 24 hours, the gels were fixed with 4% paraformaldehyde and stained with phalloidin and DAPI. In some experiments, the ROCK inhibitor Y-27632 was added to the gel. Change in gel area was measured by NIH Image J software.

mouse tracheal rings = assay: Tracheal ring assay, in vitro model of mouse airway smooth muscle cell contractility; type: cell-based; conditions: for effect on sHA-exaggerated contractile response of tracheal rings to carbachol: 1 mg/mL sHA+0.5 mg/mL oHA
Description: Airway smooth muscle reactivity was assessed in temperature-controlled (37° C.) organ baths containing Krebs-Henseleit buffer solution of the following composition: 118 mM NaCl, 4.7 mM KCl, 2.5 mM CaCl2, 1.2 mM MgSO4, 25 mM NaHCO3, 1.2 mM KH2PO4, and 11.1 mM glucose, continuously bubbled with 5% CO2 and 95% O2. Tracheal segments were mounted in organ baths between two metal hooks and connected to a K30 force displacement transducer under approximately 5-mN resting tension. Isometric contractile responses were recorded after dosing with carbachol (a bronchial constrictor) and isoproterenol (a bronchial dilator).

[3] = system: mice exposed to inhaled endotoxin (LPS); assay: Murine model of inflammatory asthma (inhaled endotoxin/LPS), airway resistance; type: in vivo; conditions: for airway resistance after inhaled endotoxin (LPS) exposure: LPS+oHA, 50 μl of 1.5 mg/ml oHA by oropharyngeal aspiration after exposure
Description: as §1
In the following studies to evaluate the effect of oHA, mice were exposed to sHA (50 μl of a 1 mg/ml sHA solution in PBS—sonicated Healon, AMO Inc., Santa Ana, Calif.) or inhaled endotoxin (5 μg/m^3) over 2.5 hours. Mice were phenotyped for AHR at typical time points for each of these exposures: 2 hours after sHA instillation; or 4 hours after endotoxin exposure. Thirty minutes prior to phenotyping, mice received appropriate treatment (saline, vehicle or oHA) by oropharyngeal aspiration. Mice were treated with 50 μl of 1.5 mg/ml oHA. Phenotyping was with invasive airway pressure measurements (FlexiVent™).

Row | Substance | airway resistance after sHA exposure (mice exposed to sHA) | airway resistance in ovalbumin allergic asthma model [1] | airway resistance after ozone exposure (mice exposed to ozone) | effect on sHA-induced contraction of gel containing human ASMC ([2]; collagen-hyaluronan gel, change in gel area) | effect on sHA-exaggerated contractile response of tracheal rings to carbachol (mouse tracheal rings) | airway resistance after inhaled endotoxin (LPS) exposure [3] | airway contractility without LPS exposure ([3]; saline+oHA (oHA alone)) | contraction of gel containing human ASMC ([2]; sHA alone, versus collagen-only control gels) | contractile response of tracheal rings to carbachol (mouse tracheal rings; 1 mg/mL sHA versus 0 mg/mL sHA)
1 | heparin [reference compound] | increased the development of airway resistance | increased the development of airway resistance | had no effect on airway resistance beyond saline | – | – | – | – | – | –
2 | heparosan | decreased the development of airway resistance | led to decreased airway resistance compared to saline placebo treatment | led to decreased airway resistance compared to saline placebo treatment | inhibited this action, and was indistinguishable from control cells | ameliorates tracheal ring contractility | inhibits inflammatory AHR | – | – | –
3 | hyaluronan oligosaccharide [oHA] | – | – | – | – | inhibited this action | led to decreased airway resistance | had no effect on airway contractility | – | –
4 | short fragment hyaluronan [sHA, reference compound] | – | – | – | – | – | – | – | led to rapid contraction of a gel containing human ASMC; also recorded: led to rapid contraction of a gel containing haSMC | led to an exaggerated contractile response of mouse tracheal rings to the constrictor substance carbachol
